Results: patent publication US20100204202A1, “DRUG FOR ALLEVIATING MOTOR COMPLICATIONS OR PSYCHIATRIC SYMPTOMS OF PARKINSON'S DISEASE” (Asubio Pharma Co., Ltd., priority 2007, published 2010)
Where a name gives a salt, the structure may show the parent alone.

Columns and labels:
[1] = tested on: Parkinson's disease model rats; test: Rate of incidence of rotational behavior induced by levodopa dosage (response failure); assay type: in vivo, rat; settings: sustained subcutaneous administration (osmotic pump) from week 6 of repeated levodopa, 2 weeks
Experimental: (§1) Therefore, the inventors prepared Parkinson's disease model rats in the same way as in Example 4 and treated the rats by repeated doses of levodopa (twice a day, Monday to Friday) for 7 weeks. The presence or absence of the rotational behavior of each rat was recorded at approximately 1 hour after the administration of levodopa during the repeated dosing period. […] Therefore, from weeks 1 to 5 of repeated doses of levodopa, the inventors recorded the presence of any rotational behavior of the rats each time, then studied the effects of the tested substances from week 6 of repeated doses of levodopa by implanting an Aizet® osmotic pump filled with SUN N4057 or physiological saline (2ML4, volume 2 ml, flow rate 2.5 μl/hr) subcutaneously at the rats. In the 2 weeks after that, the inventors similarly continued to record the presence of any rotational behavior of the rats 1 hour after levodopa administration.

[2] = tested on: Parkinson's disease patients; test: Clinical test of efficacy, safety and tolerability in patients with motor complications associated with Parkinson's disease; assay type: in vivo, human
From the text: The efficacy of SUN N4057 on motor complications accompanying levodopa therapy in Parkinson's disease patients was studied in randomized, double-blind, placebo-controlled, multicenter, international, preliminary study. The patients aged 40 to 85 years, having idiopathic Parkinson's disease fulfilling the United Kingdom Parkinson's Disease Society (UK PDS) brain bank diagnostic criteria, having a presumed or confirmed diagnosis of Parkinson's disease in Stages 2 to 4 on the Hoehn & Yahr classification scale when in an “off” state, having a diagnosis of Parkinson's disease for at least 5 years, and being on a stable regimen of levodopa (L-dopa)/carbidopa for 30 days prior to the administration of the tested drug were enrolled into the study.
After providing their informed consent, the subjects were screened in 9 to 22 days before scheduled date of start of administration. During the screening phase, the patients continued to take their usual regimen of antiparkinsonian drugs including combinations of levodopa and carbidopa or combined use of single drugs.
At the baseline (8±2 days before scheduled date of start of administration), the subjects returned to the clinic for a baseline assessment of motor fluctuations over an 8-hour period. They received the first morning dose of the patient's usual anti-Parkinson's disease drugs (including combination of levodopa and carbidopa or combined use of single drugs), and the 8 hour evaluation began approximately 1 hour after taking the initial treatment. Each hour for 8 hours, the patient were assessed and it was recorded whether the patient was in the “on” (without dyskinesia), “on with dyskinesia,” or “off” motor states. The Unified Parkinson's Disease Rating Scale (UPDRS) Part III and the Abnormal Involuntary Movement Scale AIMS were also completed each hour over the 8-hour observation period.
The subjects judged eligible after the screening and baseline evaluation were randomly assigned in a 3:1 ratio (3 active:1 placebo) to receive SUN N4057 or matching placebo. The subjects received continuous intravenous infusion of SUN N4057 (target plasma concentration of 30 ng/mL) or a placebo for 12 hours a day for 2 consecutive days. The dose regimen was selected to reach the target plasma concentration 1 hour after the start of administration and to be maintained for 11 hours. The mean dosage of SUN N4057 for the patients was 13.123 mg on day 1 and 9.550 mg on day 2.
On day 1, motor assessments (recording of “on” or “off” periods), the Unified Parkinson's Disease Rating Scale (UPDRS) Part III, and the Abnormal Involuntary Movement Scale (AIMS) were conducted immediately prior to dosing with regular antiparkinsonian medications. After the first morning dose of the regular antiparkinsonian medication was administered, intravenous infusion of SUN N4057 or placebo was started. For 8 hours from the start of infusion, motor assessments, including the UPDRS Part III, AIMS, and recording of “on” and “off” periods were to be completed hourly.

[3] = Concentration in plasma after sustained subcutaneous administration (osmotic pump); assay type: in vivo; settings: rat, sc, after the end of the behavioral experiments
Experimental: as §1
Note that the measured values of the concentration of SUN N4057 in the plasma of each group measured after the end of the behavioral experiments were 5.3±0.7 ng/mL in the SUN N4057 low dosage sustained subcutaneous administration group and 14.3±2.9 ng/mL in the high dosage sustained subcutaneous administration group.

[4] = tested on: Parkinson's disease model rats; test: Inhibition of induction of hyperkinesia of the forelimbs; assay type: in vivo, rat
Experimental: By repeated doses of levodopa to Parkinson's disease model rats, hyperkinesia of the forelimbs (abnormal action similar to dyskinesia in clinical studies) was observed (see FIG. 3). Therefore, it was studied whether it is possible to inhibit the induction of hyperkinesia of the forelimbs by repeated dosage of the tested substance from the start along with the start of repeated doses of levodopa.
The tested substance was intraperitoneally administered about 20 minutes before levodopa administration.

[5] = After administration (day 2), i.v. infusion 12 hours a day, n = 18

O=C1c2ccccc2OC=C(Cl)N1CCCCN1CC=C(c2ccccn2)CC1 [SUN N4057, 3-chloro-4,5-dihydro-4-{4-[4-(2-pyridyl)-1,2,3,6-tetrahydropyridin-1-yl]butyl}-1,4-benzoxazepin-5-one.dihydrochloride-dihydrate]
rate of incidence of rotational behavior [1]: action on recovery | Percentage of off time [2, 5]: 9.7% | Percentage of on time with dyskinesia [2, 5]: 49.3% | Percentage of on time without dyskinesia [2, 5]: 41.0% | serious adverse events or deaths ([2]; clinical study): no serious adverse events or deaths were reported | decrease of the percentage of off time in the comparison with baseline ([2]; day 2 (9.7-20.8)): 11.1 points | increase of the percentage of on time without dyskinesia in the comparison with baseline ([2]; day 2 (41.0-18.8)): 22.2 points | percentage of responder (dyskinesia by AIMS improved in severity or suppressed to zero without prolongation of off time) ([2]; day 2, placebo 0%, p=0.02): 56% | UPDRS Part 3 decline in comparison with the baseline ([2]; day 2 of administration, placebo 0.9): 4.4 point | concentration at 2 weeks ([3]; high dosage sustained subcutaneous administration group): 14.3 ± 2.9 ng/mL | concentration at 2 weeks ([3]; low dosage sustained subcutaneous administration group): 5.3 ± 0.7 ng/mL | hyperkinesia of the forelimbs compared with the results after the 3 week withdrawal period ([4]; 3 mg/kg i.p. for 3 weeks): significant inhibitory effect | appearance of hyperkinesia of the forelimbs ([4]; 3 mg/kg i.p. for 3 weeks together with the start of repeated doses of levodopa): reduced
